{"source": "patent US5496697A", "about": "“Methods and apparatus for detecting the effect of cell affecting agents on living cells” (priority 1993, dated 1996)", "key": {"[1]": {"biological_target": "T1, rat M1 muscarinic receptor (Rattus norvegicus, UniProt P08482)", "T1 sequence (P08482 1-460)": "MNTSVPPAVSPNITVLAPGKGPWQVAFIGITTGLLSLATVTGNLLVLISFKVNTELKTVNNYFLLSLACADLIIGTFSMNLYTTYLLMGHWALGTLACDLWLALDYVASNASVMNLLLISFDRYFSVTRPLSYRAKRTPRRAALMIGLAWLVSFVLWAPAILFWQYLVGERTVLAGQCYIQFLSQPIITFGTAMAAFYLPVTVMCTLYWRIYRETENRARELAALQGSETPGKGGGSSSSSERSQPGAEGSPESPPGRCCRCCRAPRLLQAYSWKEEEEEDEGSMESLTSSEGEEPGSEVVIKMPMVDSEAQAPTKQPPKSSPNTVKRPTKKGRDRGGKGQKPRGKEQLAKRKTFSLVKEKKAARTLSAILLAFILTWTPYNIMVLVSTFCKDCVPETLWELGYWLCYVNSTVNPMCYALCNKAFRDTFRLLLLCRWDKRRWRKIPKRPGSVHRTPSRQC", "experiment": "metabolic rate of M1C-2 cells (B82 cells transfected with rat M1 muscarinic receptor)", "settings": "atropine alone, FIG. 28"}, "[2]": {"system": "vesicular stomatitis virus (VSV)", "format": "cell-based", "settings": "VSV-infected L cells, FIGS. 36-39"}, "[3]": {"system": "normal human keratinocytes", "experiment": "metabolic rate of EGF-starved normal human keratinocytes", "format": "cell-based", "description": "Normal human keratinocytes require epidermal growth factor (EGF) for proliferation without differentiation. Keratinocytes (from Clonetics, Inc.) were cultured in the absence of EGF for a period of 24 hours prior to the experiment. For the experiment, the keratinocytes were assembled into four flow chambers and the alternating stop-flow sequence was initiated with medium containing no EGF. At the time indicated by the arrow in FIG. 43, the syringes containing medium were changed on all four flow chambers. The second medium contained 5 ng/ml mouse EGF, or 1.25 μg/ml of a neutralizing rabbit anti-mouse-EGF polyclonal IgC, or both. A control with no EGF or IgC was also run. […] Addition of the anti-EGF antibody alone had no effect.\nIn a separate experiment, the growth medium for the normal human epidermal keratinocytes contained 10 ng/mL murine EGF, a substance found to be mitogenic for keratinocytes. […] It does show the same rising baseline, which probably indicates some combination of cell proliferation and adaptation to the environmental conditions in the flow chamber.\nStimulation of acidification rate was observable down to 0.1 ng/mL EGF. In a control experiment, the stimulation was abolished by a monoclonal antibody to EGF that is known to block receptor binding."}, "[4]": {"system": "mouse and human fibroblasts", "settings": "previously reported; cited from earlier work"}}}
{"molecule": "CN1[C@@H]2CC[C@H]1C[C@@H](OC(=O)C(CO)c1ccccc1)C2", "note": "(stereo partly drawn) [Atropine]", "values": [{"measurement": "effect on cells alone", "setting": "[1]", "value": "no significant effect"}]}
{"molecule": "NC(=O)c1ncn([C@@H]2O[C@H](CO)[C@@H](O)[C@H]2O)n1", "note": "[ribavirin]", "values": [{"measurement": "effect on VSV-induced change of host cell metabolism", "setting": "[2]", "value": "inhibition"}]}
{"molecule": "EGF: epidermal growth factor (mouse EGF) (NSYPGCPSSYDGYCLNGGVCMHIESLDSYTCNCVIGYSGDRCQTRDLRWWELR; Epidermal growth factor; UniProt P01132 977-1029, looked up)", "values": [{"measurement": "metabolic response of keratinocytes to EGF", "setting": "[3]; 5 ng/ml mouse EGF, FIG. 43", "value": "metabolic burst"}, {"measurement": "metabolic rate at the peak", "setting": "[3]; 50 ng/mL EGF, FIG. 44", "value": "nearly doubled"}, {"measurement": "time from peak to decay to a steadily rising baseline", "setting": "[3]; 50 ng/mL EGF, FIG. 44", "value": 15, "unit": "min"}, {"measurement": "time to peak of response", "setting": "[3]; 50 ng/mL EGF, FIG. 44", "value": "~ 15 min"}, {"measurement": "time to rise in metabolic rate", "setting": "[3]; 50 ng/mL EGF, FIG. 44", "value": "≤ 5", "unit": "min"}, {"measurement": "lowest concentration with observable stimulation of acidification rate", "setting": "[3]; EGF", "value": 0.1, "unit": "ng/mL"}, {"measurement": "effect on glycolytic rate", "setting": "[4]", "value": "rapid increase in glycolytic rate"}]}
